Laboratory results published in article PMC9477868, “Gut bacteria induce oviposition preference through ovipositor recognition in fruit fly” (Communications Biology, 2022).

Columns and labels:
Assay type in all cases: binding
Obp56d [1] = target: T1, Obp56d (Bactrocera dorsalis, UniProt A0A6I9V3V6); experiment: fluorescence titration, microplate reader (ex […] nm); details: 2 uM Obp, 2-16 uM 1-NPN, 50 mM Tris-HCl, pH 7.4; fluorescent probe; one-site fit
T1 construct: gene LOC105221864; recombinant, E. coli Rosetta (DE3), pET-32a(+) vector, designed from CDS; about 29 kDa on SDS-PAGE; anion-exchange purified
T1 sequence (A0A6I9V3V6 19-138): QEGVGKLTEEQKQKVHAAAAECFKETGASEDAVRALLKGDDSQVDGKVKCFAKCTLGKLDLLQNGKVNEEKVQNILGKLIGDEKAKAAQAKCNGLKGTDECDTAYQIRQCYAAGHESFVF

Obp56d-2 [2] = target: T2, Obp56d-2 (Bactrocera dorsalis, UniProt A0ACM8RD04); experiment: as above; details: 2 uM Obp, 2-16 uM 1-NPN, 50 mM Tris-HCl, pH 7.4; fluorescent probe; one-site fit
T2 construct: gene LOC105221865; recombinant, E. coli Rosetta (DE3), pET-32a(+) vector, designed from CDS; about 29 kDa on SDS-PAGE; anion-exchange purified
T2 sequence (A0ACM8RD04 19-138): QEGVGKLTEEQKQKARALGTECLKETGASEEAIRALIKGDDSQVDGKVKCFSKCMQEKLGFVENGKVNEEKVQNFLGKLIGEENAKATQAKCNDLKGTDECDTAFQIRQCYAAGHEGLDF

Obp56d [3] = target: T1, Obp56d; experiment: competitive displacement of 1-NPN fluorescence; details: 3-HA 0-16 uM; 2 uM Obp, 50 mM Tris-HCl, pH 7.4; competitive with 1-NPN
Obp56d-2 [4] = target: T2, Obp56d-2; experiment: competitive displacement of 1-NPN fluorescence; details: 3-HA 0-16 uM; 2 uM Obp, 50 mM Tris-HCl, pH 7.4; competitive with 1-NPN

| SMILES | dissociation constant (Obp56d [1]) | dissociation constant (Obp56d-2 [2]) | % reduction of relative fluorescence intensity of the Obp/1-NPN complex (Obp56d [3]) | % reduction of relative fluorescence intensity of the Obp/1-NPN complex (Obp56d-2 [4]) |
| --- | --- | --- | --- | --- |
| c1ccc(Nc2cccc3ccccc23)cc1 [1-NPN] | Then the dissociation constants of the Obp56d and Obp56d-2 were generated | Then the dissociation constants of the Obp56d and Obp56d-2 were generated |  |  |
| CCC=CCCOC(C)=O [3-HA] |  |  | > 50% | > 50% |
